Where “and” joins values, the source holds several entries; their conditions need not be identical. Identical values can stand only once. Toxic doses and inconclusive results are not listed. Rule for the calls: active = survival T/C of 150% or more; inactive = T/C below 125% in these data. Square brackets hold non-standard residues; d marks the D form. Peptide text beside a SMILES is read from it. Abu = CC[CH](N)C(=O)O
Tested on: P388 leukemia ip, CD2F1 mice, survival T/C
Test: NCI In Vivo Anticancer Drug Screen. Data for tumor model P388 Leukemia (intraperitoneal) in CD2F1 (CDF1) mice
Settings: endpoint: median survival time, higher = longer survival
Summary of the method: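 Mice carrying the transplanted tumor received test compound or vehicle. Survival was recorded in each group, and the value is the treated-group measurement divided by that of the vehicle-treated control group.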

[1] = dose: 25.0 mg/kg/injection, schedule: Q01DX005 (ip), vehicle: Klucel (hydroxypropylcellulose) (HPC)
[2] = dose: 50.0 mg/kg/injection, schedule: Q01DX005 (ip), vehicle: Klucel (hydroxypropylcellulose) (HPC)
[3] = dose: 100.0 mg/kg/injection, schedule: Q01DX005 (ip), vehicle: Klucel (hydroxypropylcellulose) (HPC)
[4] = dose: 200.0 mg/kg/injection, schedule: Q01DX005 (ip), vehicle: Klucel (hydroxypropylcellulose) (HPC)
[5] = dose: 50.0 mg/kg/injection, schedule: Q01DX009 (ip), vehicle: saline with Tween-80
[6] = dose: 100.0 mg/kg/injection, schedule: Q01DX009 (ip), vehicle: saline with Tween-80
[7] = dose: 200.0 mg/kg/injection, schedule: Q01DX009 (ip), vehicle: saline with Tween-80
[8] = dose: 50.0 mg/kg/injection, schedule: Q01DX005 (ip), vehicle: saline
[9] = dose: 100.0 mg/kg/injection, schedule: Q01DX005 (ip), vehicle: saline
[10] = dose: 50.0 mg/kg/injection, schedule: Q01DX009 (ip), vehicle: Klucel (hydroxypropylcellulose) (HPC)
[11] = dose: 100.0 mg/kg/injection, schedule: Q01DX009 (ip), vehicle: Klucel (hydroxypropylcellulose) (HPC)
[12] = dose: 200.0 mg/kg/injection, schedule: Q01DX009 (ip), vehicle: Klucel (hydroxypropylcellulose) (HPC)

Measured: T/C

CN1CCC(CO)C1 (configuration not stated)
inactive: dose: 12.5 mg/kg/injection, schedule: Q01DX009 (ip), vehicle: water 91 % of control | dose: 25.0 mg/kg/injection, schedule: Q01DX009 (ip), vehicle: water 91 % of control | dose: 50.0 mg/kg/injection, schedule: Q01DX009 (ip), vehicle: water 91 % of control

CC(=O)Nc1cccc2nc(-c3ccccn3)n(CCc3ccccn3)c12
inactive: [1] 105 % of control | [2] 102 % of control | [3] 103 % of control | [4] 109 % of control

N#C/C(=C\c1ccccc1)c1ccc(Cl)cc1
inactive: [5] 105 % of control and 97 % of control | [6] 106 % of control and 91 % of control | [7] 113 % of control and 96 % of control | dose: 400.0 mg/kg/injection, schedule: Q01DX009 (ip), vehicle: saline with Tween-80 103 % of control and 97 % of control

CCC(N)C(=O)NC(C(N)=O)C(C)C (configuration not stated) (H-[Abu]-Val-NH2; configuration not given here)
inactive: [8] 102 % of control | [9] 101 % of control | dose: 200.0 mg/kg/injection, schedule: Q01DX005 (ip), vehicle: saline 104 % of control

O=C1CCSC(=S)N1N1CCN(N2C(=O)CCSC2=S)CC1
inactive: dose: 100.0 mg/kg/injection, schedule: Q01DX001 (ip), vehicle: Klucel (hydroxypropylcellulose) (HPC) 102 % of control | dose: 200.0 mg/kg/injection, schedule: Q01DX001 (ip), vehicle: Klucel (hydroxypropylcellulose) (HPC) 93 % of control

C[C@H](N)C(=O)/C=C/c1ccccc1
inactive: dose: 10.0 mg/kg/injection, schedule: Q01DX005 (ip), vehicle: saline 101 % of control | dose: 20.0 mg/kg/injection, schedule: Q01DX005 (ip), vehicle: saline 100 % of control | dose: 40.0 mg/kg/injection, schedule: Q01DX005 (ip), vehicle: saline 98 % of control

Nc1ccccc1-c1nnc(-c2ccccc2)o1
inactive: dose: 60.0 mg/kg/injection, schedule: Q01DX005 (ip), vehicle: saline with Tween-80 100 % of control | dose: 120.0 mg/kg/injection, schedule: Q01DX005 (ip), vehicle: saline with Tween-80 89 % of control | dose: 240.0 mg/kg/injection, schedule: Q01DX005 (ip), vehicle: saline with Tween-80 86 % of control

CCCN1C(=O)CC(=O)N(CCC)P1(=O)OCC
inactive: dose: 100.0 mg/kg/injection, schedule: Q04DX002 (ip), vehicle: saline 101 % of control | dose: 200.0 mg/kg/injection, schedule: Q04DX002 (ip), vehicle: saline 108 % of control | dose: 400.0 mg/kg/injection, schedule: Q04DX002 (ip), vehicle: saline 101 % of control

CCCCNC(=S)NNC(=O)CNC(c1ccc(OC)cc1)C(CC)c1ccc(OC)cc1 (configuration not stated)
inactive: dose: 100.0 mg/kg/injection, schedule: Q01DX001 (ip), vehicle: saline with Tween-80 88 % of control | dose: 200.0 mg/kg/injection, schedule: Q01DX001 (ip), vehicle: saline with Tween-80 101 % of control

C/C=C/CC(C)C(O)C1C(=O)NC(CC)C(=O)N(C)CC(=O)N(C)C(CC(C)C)C(=O)NC(C(C)C)C(=O)N(C)C(CC(C)C)C(=O)NC(C)C(=O)NC(C)C(=O)N(C)C(CC(C)C)C(=O)N(C)C(CC(C)C)C(=O)N(C)C(C(C)C)C(=O)N1C (configuration not stated)
inactive: dose: 15.0 mg/kg/injection, schedule: Q01DX009 (ip), vehicle: Klucel (hydroxypropylcellulose) (HPC) 106 % of control | dose: 30.0 mg/kg/injection, schedule: Q01DX009 (ip), vehicle: Klucel (hydroxypropylcellulose) (HPC) 109 % of control | dose: 60.0 mg/kg/injection, schedule: Q01DX009 (ip), vehicle: Klucel (hydroxypropylcellulose) (HPC) 116 % of control | dose: 120.0 mg/kg/injection, schedule: Q01DX009 (ip), vehicle: Klucel (hydroxypropylcellulose) (HPC) 109 % of control

N#CSC1=C(SC#N)C1(F)F
inactive: dose: 12.5 mg/kg/injection, schedule: Q04DX002 (ip), vehicle: Klucel (hydroxypropylcellulose) (HPC) 100 % of control | dose: 25.0 mg/kg/injection, schedule: Q04DX002 (ip), vehicle: Klucel (hydroxypropylcellulose) (HPC) 100 % of control | dose: 50.0 mg/kg/injection, schedule: Q04DX002 (ip), vehicle: Klucel (hydroxypropylcellulose) (HPC) 104 % of control

Nc1cccnc1
inactive: dose: 5.0 mg/kg/injection, schedule: Q04DX003 (ip), vehicle: saline 100 % of control | dose: 10.0 mg/kg/injection, schedule: Q04DX003 (ip), vehicle: saline 100 % of control | dose: 20.0 mg/kg/injection, schedule: Q04DX003 (ip), vehicle: saline 100 % of control

CN1C=C/C(=C/[N+](=O)[O-])N(C)C1=O
inactive: [1] 99 % of control | [2] 105 % of control | [3] 100 % of control | [4] 112 % of control

[Cl][Zn][Cl].c1ccc2[nH]cnc2c1.c1ccc2[nH]cnc2c1
inactive: dose: 12.5 mg/kg/injection, schedule: Q01DX005 (ip), vehicle: Klucel (hydroxypropylcellulose) (HPC) 100 % of control | [1] 108 % of control | [2] 100 % of control

Cc1ccnn1C(C(=O)c1ccccc1)c1ccccc1 (configuration not stated)
inactive: [5] 108 % of control | [6] 105 % of control | [7] 105 % of control

CCOC(=O)C(Cc1csc2ccc(Cl)cc12)NC(C)=O (configuration not stated)
inactive: [10] 94 % of control | [11] 95 % of control | [12] 99 % of control

[Cl][Pt].c1ccc([PH+](CCC[PH+](c2ccccc2)c2ccccc2)CCC[PH+](c2ccccc2)c2ccccc2)cc1
inactive: dose: 12.5 mg/kg/injection, schedule: Q04DX003 (ip), vehicle: saline with Tween-80 109 % of control | dose: 25.0 mg/kg/injection, schedule: Q04DX003 (ip), vehicle: saline with Tween-80 109 % of control | dose: 50.0 mg/kg/injection, schedule: Q04DX003 (ip), vehicle: saline with Tween-80 97 % of control | dose: 100.0 mg/kg/injection, schedule: Q04DX003 (ip), vehicle: saline with Tween-80 95 % of control | dose: 200.0 mg/kg/injection, schedule: Q04DX003 (ip), vehicle: saline with Tween-80 104 % of control

CC1(C)OCC(C(OS(C)(=O)=O)C2OC(C)(C)OC2COS(C)(=O)=O)O1 (configuration not stated)
inactive: [10] 91 % of control | [11] 97 % of control | [12] 99 % of control

C=C1CC2(CCCc3ccccc32)OC1=O (configuration not stated)
inactive: dose: 100.0 mg/kg/injection, schedule: Q01DX001 (ip), vehicle: saline 101 % of control | dose: 200.0 mg/kg/injection, schedule: Q01DX001 (ip), vehicle: saline 102 % of control | dose: 400.0 mg/kg/injection, schedule: Q01DX001 (ip), vehicle: saline 101 % of control

O=C1NC(c2ccccc2)C(c2ccccc2)(c2ccccc2)O1 (configuration not stated)
inactive: [5] 93 % of control | [6] 86 % of control

COc1cccc(/C=C\C(=O)c2ccccc(=O)c2O)c1OC
inactive: [1] 106 % of control | [2] 101 % of control | [3] 114 % of control | [4] 107 % of control

NC1CCCCCC1
inactive: [8] 110 % of control | [9] 86 % of control

CC(C)COc1cccc2[oH+]c(C(=O)[O-])cc(=O)c12.CC(C)COc1cccc2[oH+]c(C(=O)[O-])cc(=O)c12.[Cu+2]
inactive: dose: 12.5 mg/kg/injection, schedule: Q04DX002 (ip), vehicle: saline with Tween-80 104 % of control | dose: 25.0 mg/kg/injection, schedule: Q04DX002 (ip), vehicle: saline with Tween-80 95 % of control | dose: 50.0 mg/kg/injection, schedule: Q04DX002 (ip), vehicle: saline with Tween-80 94 % of control

From PubChem BioAssay AID330 (DTP/NCI, 2004)
